Tests used:
[1] = biological target: T1, full-length human Hpk1 (Homo sapiens, UniProt Q92918); experiment: HPK1 kinase assay (ADP Glo Kinase Assay); type: biochemical; conditions: full-length human GST-Hpk1, ADP Glo, 75 μM ATP; for IC50: read-out: Hpk1 biochemical (pIC50) (converted)
T1 construct: A recombinant fusion protein consisting of full-length human Hpk1; GST (N)
Method: Pharmacological Part HPK1 Kinase Assay
A recombinant fusion protein consisting of full-length human Hpk1 with an N-terminal Glutatione S-transferase (GST) tag was produced in a baculovirus/insect cell expression system. GST-Hpk1 protein was purified from cell lysates by glutathione sepharose affinity chromatography. Kinase inhibition was determined using the ADP Glo™ Kinase Assay kit (Promega, V9101). Test compounds were prepared by serial dilution in dimethyl sulfoxide (DMSO) and 0.1 μl of each dilution was spotted onto a 384-well white Proxiplate (Perkin Elmer, 6008289). 8 μl of kinase assay buffer (40 mM Tris pH 7.5, 2 mM dithiothreitol (DTT), 0.05% Bovine Serum Albumin, 5 mM MgCl2) containing Hpk1 protein was transferred to each well and incubated for 30-45 minutes at room temperature. The enzymatic reaction was started by adding 2 μl of kinase assay buffer containing 75 μM ATP. After 120 minutes, the reaction was stopped by adding 3 μl of ADP Glo™ reagent (Promega, V9101) and incubating 45 minutes at room temperature.

[2] = biological target: Hpk1 (Homo sapiens, UniProt Q92918); experiment: SLP76 phosphorylation assay (SLP76 pS376 in lysates of HEK293 cells engineered to express Hpk1 and SLP76); type: cell-based; conditions: HEK293 cells expressing Hpk1 and SLP76, 4 hours incubation; for IC50: read-out: pSLP76 (HEK293) (pIC50) (converted)
Chain of Hpk1 (Q92918 whole entry): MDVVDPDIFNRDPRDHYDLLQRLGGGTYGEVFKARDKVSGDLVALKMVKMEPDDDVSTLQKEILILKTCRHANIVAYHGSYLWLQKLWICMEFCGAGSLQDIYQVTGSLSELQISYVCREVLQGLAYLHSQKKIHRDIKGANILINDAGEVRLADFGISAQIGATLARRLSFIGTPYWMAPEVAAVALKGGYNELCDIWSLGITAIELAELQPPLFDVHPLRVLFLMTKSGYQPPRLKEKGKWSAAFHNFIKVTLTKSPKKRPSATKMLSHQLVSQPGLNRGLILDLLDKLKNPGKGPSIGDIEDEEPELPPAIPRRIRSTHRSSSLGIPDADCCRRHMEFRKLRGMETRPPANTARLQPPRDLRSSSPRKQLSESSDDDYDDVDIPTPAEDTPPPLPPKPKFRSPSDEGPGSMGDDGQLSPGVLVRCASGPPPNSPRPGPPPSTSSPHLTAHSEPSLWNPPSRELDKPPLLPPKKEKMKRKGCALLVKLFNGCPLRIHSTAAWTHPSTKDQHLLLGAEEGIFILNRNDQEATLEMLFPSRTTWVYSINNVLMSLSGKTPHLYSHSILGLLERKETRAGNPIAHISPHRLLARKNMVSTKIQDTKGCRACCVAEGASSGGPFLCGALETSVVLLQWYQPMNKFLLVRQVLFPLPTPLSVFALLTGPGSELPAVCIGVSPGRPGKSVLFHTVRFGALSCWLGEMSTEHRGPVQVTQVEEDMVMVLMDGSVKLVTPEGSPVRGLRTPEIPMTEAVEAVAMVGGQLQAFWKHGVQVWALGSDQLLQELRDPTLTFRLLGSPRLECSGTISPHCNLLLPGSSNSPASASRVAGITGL
Method: SLP76 Phosphorylation Assay
Hpk1 inhibition in cells was determined by detection of SLP76 phosphorylation at S376 in lysates from HEK293 cells engineered to express Hpk1 and SLP76. Serial dilutions of test compounds were prepared in cell culture medium and 20 μl was transferred into each well of a 96-well plate containing HEK293 cells in 180 μl of culture medium. After incubation for 4 hours at 37° C./5% CO2, the culture medium was removed, plates were put on ice and cells washed with cold Minimal Essential Medium before lysing in 90 μl of cold Mammalian Protein Extraction Reagent (Thermo Scientific, 78501) for 30 minutes on ice. The cell lysates were transferred to another 96-well plate, centrifuged 10 minutes at 3000 rcf (4° C.) and 30 μl transferred to a 96-well High-bind plate (MSD, L15XB-3). After coating overnight at 4° C., the cell lysate was removed, wells were washed with base buffer (TBS, 0.2% Tween-20), and blocking solution (base buffer containing 3% MSD blocker A) was added to each well for 1 hour at room temperature. The blocking solution was removed, the wells were washed with base buffer, and detection antibody (SLP76 pS376) was added in 25 μl base buffer containing 1% MSD blocker A to each well. After a 2 h incubation at room temperature, the detection antibody was removed, wells were washed four times with base buffer, 25 μl SULFO-TAG labeled goat anti-rabbit secondary antibody (MSD, R32AB-1) in base buffer containing 1% MSD blocker A was added to each well and left for 1 hour at room temperature. Wells were washed 4 times with base buffer, 150 μl Read Buffer T was added to each well, and the plates were read in a Mesoscale plate reader (MSD). IC50 values were determined by curve-fitting the electrochemiluminescent signals obtained from the lysates of HEK293 cells expressing Hpk1 and SLP76 treated with test compounds at various concentrations minus the signal obtained from HEK293 cells expressing SLP76 only.

T1 sequence (Q92918 whole entry, the tested form may be a part): as the sequence (Q92918 whole entry) above

SMILES | IC50 [1] | IC50 [2] | Hpk1 biochemical (pIC50) [1] | pSLP76 (HEK293) (pIC50) [2]
N#Cc1cc(-c2ccc(C3CCOCC3)c([C@@H]3COCCN3)c2)cnc1N [Co. 89] | 21.4 nM | 851 nM | – | –
C[C@H]1CN[C@H](c2cc(-c3cnc(N)c(-c4cnn(C)c4)n3)ccc2C2CCOCC2)CO1 [Co. 90] | 35.5 nM | 1230 nM | – | –
C[C@@H]1CN[C@@H](c2cc(-c3cnc(N)c(-c4ccnc(F)c4)c3)ccc2C2CCOCC2)CO1 [Co. 92] | 1950 nM | > 10000 nM | – | –
C[C@H]1CN[C@H](c2cc(-c3cnc(N)c(-c4ccnc(F)c4)c3)ccc2C2CCOCC2)CO1 [Co. 94] | 12.9 nM | 575 nM | – | –
Nc1ncc(-c2ccc(C3CCOCC3)c([C@@H]3CCCN3)c2)cc1C1CCOCC1 [Co. 95] | 43.7 nM | 2240 nM | – | –
CC(=O)N1CCC(c2cc(-c3ccc(C4CCOCC4)c([C@@H]4CCCN4)c3)cnc2N)CC1 [Co. 96] | – | – | 6.84 | 5.1
CS(=O)(=O)N1CCC(c2ccc(-c3cnc(N)c(-c4ccnc(F)c4)c3)cc2[C@@H]2CCCN2)CC1 [Co. 98] | 26.3 nM | 724 nM | – | –
Nc1ncc(-c2ccc(C3CCSCC3)c([C@@H]3CCCN3)c2)cc1-c1ccnc(F)c1 [Co. 99] | 21.4 nM | 646 nM | – | –
Nc1ncc(-c2ccc(C3CCS(=O)(=O)CC3)c([C@@H]3CCCN3)c2)cc1-c1ccnc(F)c1 [Co. 100] | 19.5 nM | 1860 nM | – | –
Nc1ncc(-c2ccc(C3CCOCC3)c([C@@H]3CCCN3)c2)cc1C1CCS(=O)(=O)CC1 [Co. 102] | 295 nM | > 10000 nM | – | –
Nc1ncc(-c2ccc(C3CCOCC3)c([C@@H]3CN4CCCC[C@H]4CN3)c2)cc1Br [Co. 104] | 58.9 nM | 7940 nM | – | –
Nc1ncc(-c2ccc(C3CCOCC3)c(CNC3COC3)c2)cc1-c1ccnc(F)c1 [Co. 105] | 380 nM | > 10000 nM | – | –
CN(Cc1cc(-c2cnc(N)c(-c3ccncc3)c2)ccc1C1CCOCC1)C1CC1 [Co. 106] | 178 nM | 7410 nM | – | –
Nc1ncc(-c2ccc(C3CCOCC3)c(CN3CCCC3)c2)cc1-c1ccncc1 [Co. 108] | 117 nM | 7590 nM | – | –
CN(C)Cc1cc(-c2cnc(N)c(C(=O)NCCO)c2)ccc1C1CCOCC1 [Co. 110] | 89.1 nM | 4680 nM | – | –
CC(CO)CNC(=O)c1cc(-c2ccc(C3CCOCC3)c(CN(C)C)c2)cnc1N (stereo not shown) [Co. 111] | 110 nM | 5890 nM | – | –
Nc1ncc(-c2ccc(C3CCOCC3)c([C@@H]3CCCN3)c2)cc1-c1ccc(=O)[nH]c1 [Compound 56] | 35.5 nM | > 10000 nM | – | –
